Assay results reported in patent publication US10669545B2, “Tumor cell malignant transformation suppressor and anti-tumor agent” (JAPAN SCIENCE AND TECHNOLOGY AGENCY, priority 2015, dated 2020).

Tests used:
Format in all cases: cell-based, human
[1] = test system: A375 cells; experiment: Annexin V-positive cells, A375 cells; settings: UO126 10 μM or oxaliplatin 20 μM for 48 hours, compared with PLX4032 case
Experimental: The percentage of Annexin V-positive cells was measured as follows. First, FITC labeled Annexin V (manufactured by MBL, Nagoya, Japan) and Hoechst33342 were added to each cell and incubated for 40 minutes. Next, a stained state of the incubated cells was analyzed by using DAPI filter and FITC filter of an imaging cytometer, “In Cell Analyzer 2000” (manufactured by GE healthcare). Percentage (%) of […] was determined by In Cell Analyzer Workstation 3.7 (manufactured by GE healthcare). The statistical difference was determined by the Tukey's multiple comparisons of means test (**: P<0.01, *: P<0.05).
Next, the influence of knockdown of endogenous ZIC5, and PDGFD and ITGA6, which are downstream factors, on a decrease in cell proliferation by PLX4032 and induction of apoptosis was examined. […] Next, the treated cells were added to FITC labeled Annexin V (manufactured by MBL, Nagoya, Japan) and Hoechst33342 and incubated for 40 minutes. […]
(§1) The statistical difference was determined by the Tukey's multiple comparisons of means test (**: P<0.01, *: P<0.05).

[2] = test system: ZIC5; experiment: Western blotting of ZIC5; settings: A375 cells; 24 hours; FAK inhibitor I 0-5 μM, WP1066 0-4 μM, IL-6 0-20 ng/mL
Experimental: The expression level of PDGFD gene and Zic5 gene in the obtained cells was measured by western blotting using GAPDH as an internal control. Western blotting was performed according to a method of Kanemaru et al. (refer to NPL 13) using anti-ZIC5 antibody (manufactured by Aviva systems biology), anti-PDGFD antibody (manufactured by Santa Cruz), and anti-GAPDH antibody (manufactured by Cell Signaling).
(§2) A375 cells were treated in a medium in which a concentration of a FAK inhibitor I (manufactured by Calbiochem) was 0, 1, 2.5, or 5 μM for 24 hours, and the level of ZIC5, pro-PDGFD, pERK, and β-actin was measured by western blotting. Western blotting was performed in the same manner as above except that anti-ZIC5 antibody (manufactured by Aviva systems biology), anti-PDGFD antibody (manufactured by Santa Cruz), anti-pERK antibody (manufactured by Cell Signaling), and anti-β-actin antibody (manufactured by Sigma) were used.
A375 cells were treated in a medium in which a concentration of the Stat3 inhibitor, WP1066 (manufactured by Santa Cruz, Dallas, Tex.) was 0, 1, 1.5, 2, 2.5, 3, or 4 μM for 24 hours, and then western blotting was performed to assess the level of ZIC5, pro-PDGFD, pSTAT3, STAT3, and GAPDH. […]

[3] = test system: phosphorylated Stat3 (pStat3); experiment: Western blotting of phosphorylated Stat3; settings: A375 cells; 24 hours; WP1066 0-4 μM, IL-6 0-20 ng/mL
Experimental: (§3) A375 cells were treated in a medium in which a concentration of the Stat3 inhibitor, WP1066 (manufactured by Santa Cruz, Dallas, Tex.) was 0, 1, 1.5, 2, 2.5, 3, or 4 μM for 24 hours, and then western blotting was performed to assess the level of ZIC5, pro-PDGFD, pSTAT3, STAT3, and GAPDH. Western blotting was performed in the same manner as above except that anti-ZIC5 antibody (manufactured by Aviva systems biology), anti-PDGFD antibody (manufactured by Santa Cruz), anti-pSTAT3 antibody (manufactured by Cell Signaling), STAT3 antibody (manufactured by BD Biosciences), and anti-GAPDH antibody (manufactured by Cell Signaling) were used.
as §3, with “Interleukin-6 (IL-6)” for “the Stat3 inhibitor, WP1066”, “Novus Biologicals)” for “Santa Cruz, Dallas, Tex.)”, “10,” for “1, 1.5, 2, 2.5, 3,”, “20 ng/mL” for “4 μM”, “anti-pERK” for “anti-PDGFD”, “Cell Signaling),” for “Santa Cruz),”

[4] = test system: pro-PDGFD; experiment: Western blotting of pro-PDGFD; settings: A375 cells; 24 hours; FAK inhibitor I 0-5 μM, WP1066 0-4 μM
Description: Because phosphorylation of focal adhesion kinase (FAK), which is activated at Focal adhesion, has been associated with melanoma malignancy (refer to NPL 19), FAK change by ZIC5 was examined. Furthermore, focusing on Integrin, alpha 6 (ITGA6) and platelet-derived growth factor D (PDGFD) among the Focal adhesion-related genes in the altered genes by Zic5 knockdown, change in cells was examined. Specifically, a level of phosphorylated FAK (pFAK), total FAK (FAK), ITGA6, pro-PDGFD, and β-actin in A375 cells transfected with siZIC5 or siNeg was assessed by western blotting. Western blotting was performed in the same manner as above except that anti-pFAK antibody (manufactured by Signalway Antibody), anti-FAK antibody (manufactured by Acris), anti-β-actin antibody (manufactured by Sigma), anti-ITGA6 antibody (manufactured by GeneTex), and anti-PDGFD antibody (manufactured by Santa Cruz) were used.
The expression level of PDGFD gene and Zic5 gene in the obtained cells was measured by western blotting using GAPDH as an internal control. […]
A375 cells were treated in a medium in which a concentration of a FAK inhibitor I (manufactured by Calbiochem) was 0, 1, 2.5, or 5 μM for 24 hours, and the level of ZIC5, pro-PDGFD, pERK, and β-actin was measured by western blotting. […]

[5] = test system: stably Zic5 gene-expressed line (SK-MEL-28 cells); experiment: Annexin V-positive cells, stably Zic5 gene-expressed line; settings: WP1066 10 μM for 24 hours; not shown
Experimental: PLX4032 was dissolved in DMSO to be used as a solution, and a line added to an equal amount of DMSO (DMSO treatment) was used as a control. The result of a relative cell number (n=3) in which the number of cells of the cells in which the stably Flag-expressed line was treated with PLX4032 (in the drawing, “+” on the “PLX4032” section, the same applies to the following examples), or the cells treated with DMSO (in the drawing, “−” on the “PLX4032” section, the same applies to the following examples) was set to 1 is shown in FIG. 30. The statistical difference was determined by the Tukey's multiple comparisons of means test (**: P<0.01, *: P<0.05). […]
The percentage of Annexin V-positive cells was measured as follows. […] Next, a stained state of the incubated cells was analyzed by using DAPI filter and FITC filter of an imaging cytometer, “In Cell Analyzer 2000” (manufactured by GE healthcare). Percentage (%) of […] was determined by In Cell Analyzer Workstation 3.7 (manufactured by GE healthcare). The statistical difference was determined by the Tukey's multiple comparisons of means test (**: P<0.01, *: P<0.05).
as §1

[6] = test system: total STAT3 (STAT3); experiment: Western blotting of total STAT3; settings: A375 cells; 24 hours; WP1066 0-4 μM, IL-6 0-20 ng/mL
Experimental: as §3
as §3, with “Interleukin-6 (IL-6)” for “the Stat3 inhibitor, WP1066”, “Novus Biologicals)” for “Santa Cruz, Dallas, Tex.)”, “10,” for “1, 1.5, 2, 2.5, 3,”, “20 ng/mL” for “4 μM”, “anti-pERK” for “anti-PDGFD”, “Cell Signaling),” for “Santa Cruz),”

[7] = test system: phosphorylated MLC2 (ppMLC2); experiment: Western blotting of phosphorylated MLC2; settings: stably Zic5 gene-expressed line treated with ROCK inhibitor; not shown
Experimental: Myosin light chain 2 (MLC2) is known as an important factor for enhancing melanoma motility. It is known that MLC2 is activated through phosphorylation and enhances cell motility by enhancing actomyosin contraction (refer to NPLs 14 and 15). A protein level of phosphorylated MLC2 (ppMLC2), MLC2, and GAPDH of each cell was measured by western blotting. Western blotting was performed according to a method of Kanemaru et al. (refer to NPL 13) using anti-ppMLC2 antibody, anti-MLC2 antibody, and anti-GAPDH antibody (all manufactured by Cell Signaling).
Motility of melanoma cells in a case of siRNA-mediated knockdown of endogenous Zic5 gene was examined by performing Transwell Migration Assay. Specifically, SK-MEL-28 cells and A375 cells, which are melanoma cell lines, were transfected with siZIC5#1, siZIC5#2, siNeg#1, or siNeg#2 described in Table 2 in the same manner as Example 1. In the same manner as above, Transwell Migration Assay was performed with the cells transfected with each siRNA, and then the number of migrated cells was counted. […] The protein level of ppMLC2, MLC2, and GAPDH in the cells in which SK-MEL-28 cells were transfected with siRNA was measured by western blotting. The result of western blotting with SK-MEL-28 cells is shown at the bottom of FIG. 9.
The protein level of ppMLC2, MLC2, and GAPDH in each cell was measured by western blotting in the same manner as above.

[8] = test system: stably Zic5 gene-expressed line (SK-MEL-28 cells); experiment: Transwell Migration Assay, stably Zic5 gene-expressed line; settings: treated or non-treated with ROCK inhibitor
Experimental: Specifically, the stably Zic5 gene-expressed line and the stably Flag-expressed line were seeded in a 24-well plate into which an insert with 8-μm sized pores (manufactured by BD Biosciences) was put and were cultured in RPMI 1640 medium containing 10% FBS, and then the number of migrated cells was counted.
The influence of suppressing MLC2 phosphorylation on migration ability of cells was analyzed. Specifically, Transwell Migration Assay was performed in the same manner as above with the stably Zic5 gene-expressed line and the stably Flag-expressed line in a state of being treated or non-treated with a ROCK inhibitor (Y27632), and then the number of migrated cells was counted.
The number of migrated cells was normalized to a total number of viable cells. A relative cell number (n=3) in which the number of migrated cells transfected with siNeg#1 of each cell was set to 1 is shown in FIG. 29. The statistical difference was determined by the Tukey's multiple comparisons of means test (**: P<0.01, *: P<0.05).

[9] = test system: phosphorylated ERK1/2 (Thr202/204) (pERK); experiment: Western blotting of phosphorylated ERK1/2; settings: A375 cells; 24 hours; FAK inhibitor I 0-5 μM, IL-6 0-20 ng/mL
Experimental: Western blotting was performed in the same manner as above except that anti-pAKT antibody (manufactured by Cell Signaling), anti-AKT antibody (manufactured by Cell Signaling), anti-pERK antibody (manufactured by Cell Signaling), anti-ERK antibody (manufactured by Cell Signaling), and anti-β-actin antibody (manufactured by Sigma) were used.
vemR-1 to 3 cells and HT144 cells were treated with DMSO or PLX4032 solution (which was dissolved in DMSO to become 5 μM) for 48 hours, and the level of pAKT, AKT, pERK, ERK, and β-actin of these cells was assessed by western blotting in the same manner as Example 8.
as §2
A375 cells were treated in a medium in which a concentration of Interleukin-6 (IL-6) (manufactured by Novus Biologicals) was 0, 10, or 20 ng/mL for 24 hours, and then western blotting was performed to assess the level of ZIC5, pro-PDGFD, pSTAT3, STAT3, and GAPDH. […]

O=C1[O][Pt]2([NH][C@@H]3CCCC[C@H]3[NH]2)[O]C1=O [oxaliplatin]
percentage of Annexin V-positive cells, drug treatment of siZIC5- vs siNeg-transfected cells [1]: the same results were obtained

C[C@H](NC(=O)/C(C#N)=C/c1cccc(Br)n1)c1ccccc1 [WP1066, reference compound]
expression level of ZIC5 [2]: decreased in accordance with a concentration of the Stat3 inhibitor
expression level of pSTAT3 [3]: decreased in accordance with a concentration of the Stat3 inhibitor
expression level of pro-PDGFD [4]: decreased in accordance with a concentration of the Stat3 inhibitor
suppression of apoptosis by Zic5 [5]: completely suppressed
level of STAT3 [6]: not changed

C[C@@H](N)[C@H]1CC[C@H](C(=O)Nc2ccncc2)CC1 [Y27632, reference compound]
band of ppMLC2 [7]: hardly detected
increase of migrated cells by Zic5 gene overexpression [8]: partially suppressed

IL-6: Interleukin-6 (manufactured by Novus Biologicals)
level of pERK [9]: not changed
expression level of ZIC5 [2]: increased in accordance with a concentration of the IL-6
expression level of pSTAT3 [3]: increased in accordance with a concentration of the IL-6
level of STAT3 [6]: not changed

N#CC(=C(/N)Sc1ccccc1N)/C(C#N)=C(/N)Sc1ccccc1N [UO126]
percentage of Annexin V-positive cells, drug treatment of siZIC5- vs siNeg-transfected cells [1]: the same results were obtained
